Assay results published in PMC4708625 (Free Radical Biology & Medicine, 2016).

Legend:
[1] = molecular target: T1, Carboxylesterase 1 isoform b (Ces1b) (Homo sapiens, UniProt P23141); assay: biochemical; details: read-out: % inhibition at 100 μM
T1 construct: gene CES1
T1 sequence (P23141 18-567): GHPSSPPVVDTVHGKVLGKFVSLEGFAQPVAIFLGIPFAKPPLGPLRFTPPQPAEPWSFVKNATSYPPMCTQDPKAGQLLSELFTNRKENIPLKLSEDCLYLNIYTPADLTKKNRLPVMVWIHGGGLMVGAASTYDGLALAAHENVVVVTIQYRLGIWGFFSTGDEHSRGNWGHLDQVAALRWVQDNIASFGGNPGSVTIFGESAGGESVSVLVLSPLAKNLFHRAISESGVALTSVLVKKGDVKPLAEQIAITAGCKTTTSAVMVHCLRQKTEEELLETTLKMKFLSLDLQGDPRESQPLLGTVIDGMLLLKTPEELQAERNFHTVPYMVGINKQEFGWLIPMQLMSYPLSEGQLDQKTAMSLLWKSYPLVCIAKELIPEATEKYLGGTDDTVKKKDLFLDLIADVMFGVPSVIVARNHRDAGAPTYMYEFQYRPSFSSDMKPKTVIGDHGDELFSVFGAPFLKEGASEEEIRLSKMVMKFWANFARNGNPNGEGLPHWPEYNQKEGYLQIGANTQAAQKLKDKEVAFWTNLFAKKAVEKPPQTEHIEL

[2] = molecular target: T1, Carboxylesterase 1 isoform b (Ces1b); assay: dose response of Amplex Red to resorufin conversion by recombinant Ces1b (fluorescence); format: biochemical
[3] = molecular target: T1, Carboxylesterase 1 isoform b (Ces1b); assay: inhibition of Amplex Red to resorufin conversion by recombinant Ces1b (fluorescence); format: biochemical
purified protein = substrate: CC(=O)N1c2ccc(O)cc2Oc2cc(O)ccc21; assay: purified protein; details: docking: carbonyl carbon near Ser221, carbonyl oxygen in oxyanion hole of Gly142 and Gly143

Molecule: CN(C)C(=O)C(CCN1CCC(O)(c2ccc(Cl)cc2)CC1)(c1ccccc1)c1ccccc1 [LPM, Loperamide]
- inhibition at 100 µM [1]: ~50%

Molecule: O=S(=O)(F)Cc1ccccc1 [PMSF, Phenylmethyl sulfonyl fluoride]
- IC50 [2]: ~5000 nM

Molecule: O=[N+]([O-])c1ccc(OP(=O)(O)Oc2ccc([N+](=O)[O-])cc2)cc1 [BNPP, bis(4-nitrophenyl)phosphate]
- IC50 [3]: ~150 nM

B1: Carboxylesterase 1 isoform b (Ces1b) (Homo sapiens) (protein)
chain: GHPSSPPVVDTVHGKVLGKFVSLEGFAQPVAIFLGIPFAKPPLGPLRFTPPQPAEPWSFVKNATSYPPMCTQDPKAGQLLSELFTNRKENIPLKLSEDCLYLNIYTPADLTKKNRLPVMVWIHGGGLMVGAASTYDGLALAAHENVVVVTIQYRLGIWGFFSTGDEHSRGNWGHLDQVAALRWVQDNIASFGGNPGSVTIFGESAGGESVSVLVLSPLAKNLFHRAISESGVALTSVLVKKGDVKPLAEQIAITAGCKTTTSAVMVHCLRQKTEEELLETTLKMKFLSLDLQGDPRESQPLLGTVIDGMLLLKTPEELQAERNFHTVPYMVGINKQEFGWLIPMQLMSYPLSEGQLDQKTAMSLLWKSYPLVCIAKELIPEATEKYLGGTDDTVKKKDLFLDLIADVMFGVPSVIVARNHRDAGAPTYMYEFQYRPSFSSDMKPKTVIGDHGDELFSVFGAPFLKEGASEEEIRLSKMVMKFWANFARNGNPNGEGLPHWPEYNQKEGYLQIGANTQAAQKLKDKEVAFWTNLFAKKAVEKPPQTEHIEL
- Km (purified protein): 55 ± 12 µM
